Results as given in US20110269716A1, “ANTIOXIDANT COMPOUNDS AND METHODS OF THEIR USE” (priority 2008, published 2011).

Key:
A-T cell line KT = experiment: A-T cell survival assay (irradiated cells, Trypan blue count); assay type: cell-based, human; conditions: 100 μM nitroxide, at least six hours before irradiation at 4 Gy, counted every 24 hours for 4 days
Protocol: Lymphoblastoid Cell Lines (LCL) of A-T cells and standard cells were used, which were incubated and cultured in the standard conditions. The cell lines of both A-T cells and standard cells were initially divided into four batches, the first batch was not irradiated and not exposed to nitroxide, second batch was irradiated in the absence of nitroxide, the third batch was not irradiated but was exposed to the nitroxide, and the last batch was irradiated in the presence of the nitroxide. All four aliquots were taken from the cultured medium and counted to ensure consistent numbers of cells were present in each aliquot used in the assay. In some experiments comparative experiments were performed with the known nitroxide antioxidant CTMIO. Cells that were treated by the nitroxide studied were exposed for at least six hours prior to the irradiation at the lethal dose of 4 Gy. After dilution, the final concentrations of the nitroxides were made to be 100 μM. Previous experiments have shown that nitroxides generally have minimal toxicity at the concentration of 100 μM, but to confirm this, cell growth was monitored in the presence of the nitroxides but without exposure to irradiation. From this it was evident that there was no significant cytotoxicity with any of the compounds studied.
The concentrations of the cell cultures were monitored every 24 hours after irradiation, for four days. This was conducted via a Trypan blue based assay using a bright-line hemacytometer and an optical microscope. Trypan blue solution enables the discrimination of live cells from dead cells, as the dye is completely absorbed by dead cells, but not by live cells. Under a bright-line hemacytometer, a glass slide specially designed to determine cell concentrations, the blue dead cells fade into the background, enabling the selective count of live cells under an optical microscope. […]
Cell survivability was determined by the ratio of cells irradiated to the cells without irradiation. […] Errors were calculated with 95% confidence intervals. […]

[1] = Log P by shake flask method (octanol/water, UV/vis at 230 nm); assay type: physicochemical
Protocol: The solubility and permeability of CTMIO and DCTEIO (Compound 1) were assessed using the shake flask method and UV/vis spectroscopy to measure distribution of the solute as follows:
A sample of octanol containing DCTEIO (3.34 mg, 1 mM) was added to a separating funnel with 10 mL water. The separating funnel was shaken for 5 minutes and the mixture was allowed to separate for 16 hours. Each phase (0.5 mL) was diluted with 5 mL of like solvent, water phase diluted with water and n-octanol phase diluted with n-octanol. This protocol was repeated for CTMIO. The absorbance of each sample was measured by UV/vis spectroscopy at 230 nm. The Log P value was calculated by the following equation: […]

PC-3 cells = experiment: Biostability: EPR of conditioned media after exposure to cells; assay type: in vitro ADME; conditions: after 96 hours of exposure to PC-3 cells vs media without cells
Protocol: PC-3 cells were seeded in tissue culture flasks (surface area ˜80 cm2). The cells were allowed to attach overnight. Following this, the cells were then treated with the desired concentration of CTMIO or DCTEIO (Compound 1) or vehicle (DMSO alone) i.e. 12 mL of media containing different nitroxide or vehicle was added to each flask. 5 mL of conditioned media (i.e. treatment media that had been incubated with the cells) were removed at 24 h and 96 h. At the 96 h time point, cells in the tissue culture flask were ˜100% confluent (i.e. the surface of the flask was covered by a monolayer of cells). The conditioned media that was removed from the flasks was placed in a falcon and centrifuged at 4° C. to remove any cellular debris that might have been present. The supernatant was then transferred to a new tube and the lid parafilmed to make it as airtight as possible. The tubes of conditioned media were stored at −20° C. until Electron Paramagnetic Resonance (EPR) analysis. […] The samples were run at X-band on a Bruker ELEXSYS E 580 FT/CW X-Band spectrometer at room temperature.

[2] = tested on: cells affected with Ataxia Telangiectasia (A-T); conditions: Hosokawa et al. 2004; cited from earlier work

| Structure (SMILES) | survival of KT cells in the presence of irradiation (A-T cell line KT) | logP ([1]; n-octanol/water, shake flask, 1 mM) | EPR signal strength of the nitroxide (metabolic conversion to the non-radical hydroxylamine) (PC-3 cells) | Log P [1] | protective effect on radiation-induced oxidative stress [2] |
| --- | --- | --- | --- | --- | --- |
| CCC1(CC)c2cc(CO)c(CO)cc2C(CC)(CC)N1[O] [Compound (2), 5,6-Dihydroxymethyl-1,1,3,3-tetraethylisoindolin-2-yloxyl] | improves survival of KT cells | – | – | – | – |
| CCC1(CC)c2cc(C(=O)O)c(C(=O)O)cc2C(CC)(CC)N1[O] [Compound (1), 1,1,3,3-Tetraethyl-5,6-dicarboxylisondoline-2-yloxyl] | improves survival of KT cells | 0.57 | same signal strength | – | – |
| CCC1(CC)c2cc(CP(=O)(O)O)c(CP(=O)(O)O)cc2C(CC)(CC)N1[O] [Compound (3), 5,6-Bis(methylene)diphosphonic acid-1,1,3,3-tetraethylisoindolin-2-yloxyl] | improves survival of KT cells | – | – | – | – |
| CC1(C)c2ccc(C(=O)O)cc2C(C)(C)N1[O] [CTMIO, 5-carboxy-1,1,3,3-tetramethyl-isoindolin-2-yloxyl, reference compound] | – | – | significant reduction in signal strength | −0.47 | protective effect |
